Test results from patent US20140308317A1, “Polymeric Compounds And Methods Of Making And Using The Same” (CELLCEUTIX CORPORATION, priority 2012, published 2014).
In brackets after ≈: the same amount, converted by molar mass. Where two headings read alike, the source gives them in different places.

Assays:
[1] = Cytotoxicity colorimetric (tetrazolium) assay; assay type: cell-based, human; conditions: human, HepG2 cells (HB-8065), HepG2 cells; one hour with compound in serum-free media
Description: (§1) Cytotoxicity of the compounds was evaluated in a colorimetric assay using a transformed human liver cell line (HepG2, HB-8065) and an embryonic mouse cell line (NIH/3T3 cells, CRL-1658). This assay measures the bioreduction of a novel tetrazolium compound to a soluble formazan product by viable cells. HepG2 cells were seeded in 96 well plates at 2×10^4 cells/well in MEM medium with 10% fetal bovine serum (FBS) 24 hours prior to use. NIH/3T3 cells were seeded in 96 well plates at 2×10^4 cells/well in DMEM medium with 10% bovine calf serum (BCS) 24 hours prior to use. Cell monolayers were rinsed in serum-free media and incubated for one hour with compounds in serum-free media. After incubation, the media is replaced with serum supplemented media and live cells were measured using the Cell Titer 96 Aqueous […] Assay kit (Promega, Madison, Wis.). EC50 values were determined using a four parameter logistic equation: Y=Bottom+(Top-Bottom)/(1+10̂((LogEC50−X)*HillSlope)).
(§2) Actual results from a representative cytotoxicity assay are shown below in Table 2. Data is expressed as EC50 in μg/mL.

[2] = system: Klebsiella pneumoniae ATCC 13883; assay: Minimum Inhibitory Concentration (MIC), modified microbroth dilution; assay type: cell-based; conditions: Klebsiella pneumoniae, read-out: MIC50 K. Pnuemnoiae
[3] = system: Staphylococcus aureus ATCC 27660; assay: as above; assay type: cell-based; conditions: Staphylococcus aureus, read-out: MIC50 S. aureus
[4] = system: Enterococcus faecalis ATCC 29212; assay: as above; assay type: cell-based; conditions: Enterococcus faecalis, read-out: MIC50 E. faecalis
[5] = system: Pseudomonas aeruginosa ATCC 10145; assay: as above; assay type: cell-based; conditions: Pseudomonas aeruginosa, read-out: MIC50 P. Aeruginosa
E. Coli ATCC 25922 = assay: as above; assay type: cell-based; conditions: Escherichia coli, read-out: MIC50 E. coli
[6] = Cytotoxicity colorimetric (tetrazolium) assay; assay type: cell-based, mouse; conditions: mouse, NIH/3T3 cells (CRL-1658), NIH/3T3 cells; one hour with compound in serum-free media
Description: as §1, §2

[7] = ATCC13883, K. pneumoniae (13883), overnight incubation (18 hours)
[8] = ATCC27660, S. aureus (27660), overnight incubation (18 hours)
[9] = ATCC29212, E. faecalis (29212), overnight incubation (18 hours)
[10] = ATCC10145, P. aeruginosa (10145), overnight incubation (18 hours)
[11] = ATCC25922, E. coli (25922), overnight incubation (18 hours)

N=C(N)NCCc1ccc(C#Cc2cccc(C#Cc3ccc(CCNC(=N)N)c(CCNC(=N)N)c3)c2)cc1CCNC(=N)N [Compound 195]
EC50 at 1 h [1]: 163 µg/mL (≈ 263 µM) | MIC50 [2, 7]: 6.25 µg/mL (≈ 10.1 µM) | MIC50 [3, 8]: 0.78 µg/mL (≈ 1.26 µM) | MIC50 [4, 9]: 1.56 µg/mL (≈ 2.52 µM) | MIC50 [5, 10]: 12.5 µg/mL (≈ 20.2 µM) | MIC50 (E. Coli ATCC 25922; [11]): 3.13 µg/mL (≈ 5.06 µM) | EC50 at 1 h [6]: 95.8 µg/mL (≈ 155 µM)

NCCc1cccc(-c2coc(-c3cccc(-c4ncco4)c3)n2)c1 [Compound 133]
EC50 at 1 h [1]: 130 µg/mL (≈ 392 µM) | MIC50 [2, 7]: > 50 µg/mL | MIC50 [3, 8]: 50 µg/mL (≈ 151 µM) | MIC50 [4, 9]: 25 µg/mL (≈ 75.4 µM) | MIC50 [5, 10]: > 50 µg/mL | MIC50 (E. Coli ATCC 25922; [11]): > 50 µg/mL | EC50 at 1 h [6]: 70.2 µg/mL (≈ 212 µM)

NCCc1ccc(C#Cc2cccc(C#Cc3ccc(CCN)c(CCN)c3)c2)cc1CCN [Compound 194]
EC50 at 1 h [1]: 192 µg/mL (≈ 426 µM) | MIC50 [2, 7]: > 50 µg/mL | MIC50 [3, 8]: 1.56 µg/mL (≈ 3.46 µM) | MIC50 [4, 9]: 6.25 µg/mL (≈ 13.9 µM) | MIC50 [5, 10]: 12.5 µg/mL (≈ 27.7 µM) | MIC50 (E. Coli ATCC 25922; [11]): 12.5 µg/mL (≈ 27.7 µM) | EC50 at 1 h [6]: 154 µg/mL (≈ 342 µM)

N=C(N)NCCc1cc(C#Cc2cccc(C#Cc3cc(CCNC(=N)N)cc(CCNC(=N)N)c3)c2)cc(CCNC(=N)N)c1 [Compound 189]
EC50 at 1 h [1]: 256 µg/mL (≈ 413 µM) | MIC50 [2, 7]: 1.56 µg/mL (≈ 2.52 µM) | MIC50 [3, 8]: 3.9 to 7.8 µg/mL (≈ 6.3 to 12.6 µM) | MIC50 [4, 9]: 6.25 µg/mL (≈ 10.1 µM) | MIC50 [5, 10]: 6.25 µg/mL (≈ 10.1 µM) | MIC50 (E. Coli ATCC 25922; [11]): 1.56 µg/mL (≈ 2.52 µM) | EC50 at 1 h [6]: 131 µg/mL (≈ 212 µM)

N=C(N)NCCc1cccc(-c2coc(-c3cccc(-c4nc(-c5cccc(CCNC(=N)N)c5)co4)c3)n2)c1 [Compound 134]
EC50 at 1 h [1]: 70.9 µg/mL (≈ 133 µM) | MIC50 [2, 7]: 50 µg/mL (≈ 93.5 µM) | MIC50 [3, 8]: 0.78 µg/mL (≈ 1.46 µM) | MIC50 [4, 9]: 12.5 µg/mL (≈ 23.4 µM) | MIC50 [5, 10]: 25 µg/mL (≈ 46.8 µM) | MIC50 (E. Coli ATCC 25922; [11]): 12.5 µg/mL (≈ 23.4 µM) | EC50 at 1 h [6]: 33.4 µg/mL (≈ 62.5 µM)

N=C(N)NCC(CNC(=N)N)c1cc(Br)cc(C#Cc2cccc(C#Cc3cc(Br)cc(C(CNC(=N)N)CNC(=N)N)c3)c2)c1 (stereo not shown) [Compound 191]
EC50 at 1 h [1]: 70.3 µg/mL (≈ 93.9 µM) | MIC50 [2, 7]: 6.25 µg/mL (≈ 8.35 µM) | MIC50 [3, 8]: 1.56 µg/mL (≈ 2.08 µM) | MIC50 [4, 9]: 3.13 µg/mL (≈ 4.18 µM) | MIC50 [5, 10]: 6.25 µg/mL (≈ 8.35 µM) | MIC50 (E. Coli ATCC 25922; [11]): 3.13 µg/mL (≈ 4.18 µM) | EC50 at 1 h [6]: 17.4 µg/mL (≈ 23.3 µM)

NCCCOc1cc(OCCCN)cc(-c2ccc(C(=O)c3ccc(-c4cc(OCCCN)cc(OCCCN)c4)cc3)cc2)c1 [Compound 165]
EC50 at 1 h [1]: 355 µg/mL (≈ 566 µM) | MIC50 [2, 7]: > 50 µg/mL | MIC50 [3, 8]: 6.25 µg/mL (≈ 9.97 µM) | MIC50 [4, 9]: 25 µg/mL (≈ 39.9 µM) | MIC50 [5, 10]: 25 µg/mL (≈ 39.9 µM) | MIC50 (E. Coli ATCC 25922; [11]): 50 µg/mL (≈ 79.8 µM) | EC50 at 1 h [6]: 357 µg/mL (≈ 570 µM)

NCCCOc1cc(OCCCN)cc(-c2ccc3c(c2)C(=O)c2cccc(-c4cc(OCCCN)cc(OCCCN)c4)c2CC3)c1 [Compound 155]
EC50 at 1 h [1]: 330 µg/mL (≈ 505 µM) | MIC50 [2, 7]: > 50 µg/mL | MIC50 [3, 8]: 1.56 µg/mL (≈ 2.39 µM) | MIC50 [4, 9]: > 50 µg/mL | MIC50 [5, 10]: 25 µg/mL (≈ 38.3 µM) | MIC50 (E. Coli ATCC 25922; [11]): > 50 µg/mL | EC50 at 1 h [6]: 177 µg/mL (≈ 271 µM)

N=C(N)NCCCOc1cc(OCCCNC(=N)N)cc(-c2ccc3sc4ccc(-c5cc(OCCCNC(=N)N)cc(OCCCNC(=N)N)c5)cc4c3c2)c1 [Compound 172]
EC50 at 1 h [1]: 35.7 µg/mL (≈ 44.8 µM) | MIC50 [2, 7]: 0.78 µg/mL (≈ 0.979 µM) | MIC50 [3, 8]: 0.049 µg/mL (≈ 0.0615 µM) | MIC50 [4, 9]: 0.78 µg/mL (≈ 0.979 µM) | MIC50 [5, 10]: 6.25 µg/mL (≈ 7.84 µM) | MIC50 (E. Coli ATCC 25922; [11]): 0.78 µg/mL (≈ 0.979 µM) | EC50 at 1 h [6]: 41.4 µg/mL (≈ 51.9 µM)

NCCCN1c2ccccc2Sc2ccccc21 [Compound 100]
EC50 at 1 h [1]: 18 µg/mL (≈ 70.2 µM) | MIC50 ([2]; ATCC13883, 18 h): 100 µg/mL (≈ 390 µM) | MIC50 ([3]; ATCC27660, 18 h): 100 µg/mL (≈ 390 µM) | MIC50 ([4]; ATCC29212, 18 h): 100 µg/mL (≈ 390 µM) | MIC50 ([5]; ATCC10145, 18 h): 100 µg/mL (≈ 390 µM) | MIC50 (E. Coli ATCC 25922; ATCC25922, 18 h): 100 µg/mL (≈ 390 µM) | EC50 at 1 h [6]: 13 µg/mL (≈ 50.7 µM)

N=C(N)NCCc1cccc(-c2cc(-c3cccc(-c4cc(-c5cccc(CCNC(=N)N)c5)on4)c3)no2)c1 [Compound 129]
EC50 at 1 h [1]: 57 µg/mL (≈ 107 µM) | MIC50 [2, 7]: 12.5 to 25 µg/mL (≈ 23.4 to 46.8 µM) | MIC50 [3, 8]: 0.78 µg/mL (≈ 1.46 µM) | MIC50 [4, 9]: 3.13 µg/mL (≈ 5.85 µM) | MIC50 [5, 10]: 25 µg/mL (≈ 46.8 µM) | MIC50 (E. Coli ATCC 25922; [11]): 25 µg/mL (≈ 46.8 µM) | EC50 at 1 h [6]: 35.8 µg/mL (≈ 66.9 µM)

O=C(c1cc(C(=O)N2CCNCC2)cc(-c2ccc3sc4ccc(-c5cc(C(=O)N6CCNCC6)cc(C(=O)N6CCNCC6)c5)cc4c3c2)c1)N1CCNCC1 [Compound 170]
EC50 at 1 h [1]: > 1000 µg/mL | MIC50 [2, 7]: > 100 µg/mL | MIC50 [3, 8]: > 100 µg/mL | MIC50 [4, 9]: > 100 µg/mL | MIC50 [5, 10]: > 100 µg/mL | MIC50 (E. Coli ATCC 25922; [11]): > 100 µg/mL | EC50 at 1 h [6]: 436 µg/mL (≈ 555 µM)

NCCCOc1cc(OCCCN)cc(-c2cccc(-c3cccc(-c4cc(OCCCN)cc(OCCCN)c4)c3)c2)c1 [Compound 144]
EC50 at 1 h [1]: 448 µg/mL (≈ 748 µM) | MIC50 [2, 7]: 6.25 µg/mL (≈ 10.4 µM) | MIC50 [3, 8]: 0.195 µg/mL (≈ 0.326 µM) | MIC50 [4, 9]: 6.25 µg/mL (≈ 10.4 µM) | MIC50 [5, 10]: 6.25 µg/mL (≈ 10.4 µM) | MIC50 (E. Coli ATCC 25922; [11]): 3.13 µg/mL (≈ 5.23 µM) | EC50 at 1 h [6]: 320 µg/mL (≈ 534 µM)
